{"source": "paper PMC12007285", "about": "(Microbial Cell Factories, 2025)", "key": {"[1]": {"system": "RsNpcB (reductase component of two-component p-nitrophenol monooxygenase RsNcpAB)", "experiment": "NADH/NADPH oxidation at […] nm", "format": "biochemical, Rhodococcus sp. 21391", "settings": "50 mM Tris–HCl pH 7.5, 25 °C"}, "[2]": {"molecular_target": "p-nitrophenol monooxygenase oxidizing component RsNpcA (Rhodococcus sp. 21391) (UniProt Q6F4M8)", "experiment": "SEC"}}, "data": [{"molecule": "Cc1cc2nc3c(=O)[nH]c(=O)nc-3n(C[C@H](O)[C@H](O)[C@H](O)COP(=O)(O)OP(=O)(O)OC[C@H]3O[C@@H](n4cnc5c(N)ncnc54)[C@H](O)[C@@H]3O)c2cc1C", "note": "[FAD]", "values": [{"measurement": "Km", "setting": "[1]; 200 μM NADH, FAD varied 0.2–1.0 μM", "value": "0.11 ± 0.02", "unit": "µM"}]}, {"molecule": "NC(=O)C1=CN([C@@H]2O[C@H](COP(=O)(O)OP(=O)(O)OC[C@H]3O[C@@H](n4cnc5c(N)ncnc54)[C@H](OP(=O)(O)O)[C@@H]3O)[C@@H](O)[C@H]2O)C=CC1", "note": "[NADPH]", "values": [{"measurement": "Km", "setting": "[1]; 20 μM FAD, NADPH varied 20–220 μM", "value": "16.4 ± 4.62", "unit": "µM"}]}, {"molecule": "NC(=O)C1=CN([C@@H]2O[C@H](COP(=O)(O)OP(=O)(O)OC[C@H]3O[C@@H](n4cnc5c(N)ncnc54)[C@H](O)[C@@H]3O)[C@@H](O)[C@H]2O)C=CC1", "note": "[NADH]", "values": [{"measurement": "Km", "setting": "[1]; 20 μM FAD, NADH varied 20–220 μM", "value": "45.5 ± 10.8", "unit": "µM"}]}, {"molecule": "p-nitrophenol monooxygenase oxidizing component RsNpcA (from UniProt Q6F4M8 1-528) (enzyme)", "values": [{"measurement": "stoichiometry N", "setting": "[2]", "value": 4}]}, {"molecule": "Cc1cc2nc3c(=O)[nH]c(=O)nc-3n(C[C@H](O)[C@H](O)[C@H](O)COP(=O)(O)O)c2cc1C", "note": "[FMN]", "values": [{"measurement": "Km", "setting": "[1]; 200 μM NADH, FMN varied 0.2–1.0 μM", "value": "0.02 ± 0.007", "unit": "µM"}]}]}
